Assay results from ChEMBL document CHEMBL4334474, “Friomaramide, a Highly Modified Linear Hexapeptide from an Antarctic Sponge, Inhibits Plasmodium falciparum Liver-Stage Development” (J Nat Prod, 2019).
Active and inactive are the calls of the source. The calls are words filed in the database; no cut-off is given here. Non-standard residues stand in square brackets, D forms with d. Residues, ends and D or L forms follow the SMILES beside them. *: point of attachment. NMeI = CC[C@H](C)[C@H](NC)C(=O)O; dNMeF = CN[C@H](Cc1ccccc1)C(=O)O; X1 = C(=C/c1c[nH]c2ccccc12)/N*; NMeV = CN[C@H](C(=O)O)C(C)C; NMeA = CN[C@@H](C)C(=O)O

Tests used:
[1] = tested on: Plasmodium falciparum; assay: Antimalarial activity against Plasmodium falciparum liver stage form infected in human primary hepatocytes assessed as reduction in viability at 17.6 uM incubated for 3 days followed by compound wash and measured on day 6; type: functional, organism-based
[2] = tested on: Hepatocyte; assay: Cytotoxicity against human primary hepatocytes at 17.6 uM; type: cell-based
[3] = tested on: Plasmodium falciparum; assay: Antimalarial activity against Plasmodium falciparum liver stage form infected in human primary hepatocytes assessed as reduction in viability at 6.1 uM incubated for 3 days followed by compound wash and measured on day 6 relative to control; type: functional
[4] = tested on: Hepatocyte; assay: Cytotoxicity against human primary hepatocytes at 6.1 uM; type: cell-based
[5] = tested on: Plasmodium falciparum; assay: Antimalarial activity against Plasmodium falciparum liver stage form infected in human primary hepatocytes assessed as reduction in viability at 19.3 uM incubated for 3 days followed by compound wash and measured on day 6 relative to control; type: functional
[6] = tested on: Hepatocyte; assay: Cytotoxicity against human primary hepatocytes at 19.3 uM; type: cell-based

C[C@H]1[C@@H](O)O[C@@H]2O[C@@]3(C)CC[C@H]4[C@H](C)CC[C@@H]1[C@@]24OO3 [ARTENIMOL]
inhibition [1]: inactive | Activity [2]: Non-Toxic

CC[C@H](C)[C@@H](C(=O)N/C=C\c1c[nH]c2ccccc12)N(C)C(=O)[C@H]([C@@H](C)CC)N(C)C(=O)[C@H](C)N(C)C(=O)[C@H](C(C)C)N(C)C(=O)[C@@H](Cc1ccccc1)N(C)C(C)=O (Ac-[dNMeF][NMeV][NMeA][NMeI][NMeI]-X1)
inhibition at 6.1 µM [3]: 90 to 92% | Activity [4]: Non-Toxic

COc1cc(NC(C)CCCN)c2ncccc2c1 (stereo unspecified) [PRIMAQUINE]
inhibition at 19.3 µM [5]: > 90% | Activity [6]: Non-Toxic
